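48-hour exposure; five concentrations; linearly interpolated endpoints. GI50 marks 50% less growth.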 The source made the active and inactive calls. No stated cut-off is given here; in the data, active = GI50 up to about 1.1 µM and inactive = higher.

Among the test systems are EKVX; HCC 2998; HCT-15; KM12; M14; MOLT-4; NCI-H460; OVCAR-3; OVCAR-5; PC-3; RPMI-8226; SK-MEL-28; SK-MEL-5; SK-OV-3; SR; UO-31; A549; COLO 205; Malme-3M; UACC-62.
Common to all, as to assay: NCI anticancer screen, dose series, 48 h

For `O=C1/C(=C/c2ccccc2)N=C(c2ccccc2)N1C1Nc2cc3c(cc2S1)NC(N1C(=O)/C(=C/c2ccccc2)N=C1c1ccccc1)S3` (stereo unspecified), the GI50 in the assay on EKVX is 95.7 µM (inactive); in the assay on HCC 2998 it was 2.04 µM (inactive); in the assay on HCT-15, 24.2 µM; in the assay on KM12, 6.87 µM (inactive); in the assay on M14, 9.51 µM (inactive); in the assay on MOLT-4, 4.13 µM (inactive). The GI50 in the assay on NCI-H460 was 17.9 µM (inactive); with OVCAR-3 it was 37.1 µM (inactive); in the assay on OVCAR-5, 64 µM (inactive); in the assay on PC-3, 11.8 µM (inactive); in the assay on RPMI-8226, 5.4 µM (inactive); in the assay on SK-MEL-28, 6.64 µM (inactive). The GI50 was 30.3 µM (inactive) in the assay on SK-MEL-5, > 100 µM (inactive) in the assay with SK-OV-3, 5.28 µM (inactive) in the assay on SR and 47.8 µM (inactive) in the assay on UO-31.

Turning to `COC(=O)NC1(NC(=O)OC)NC(=O)c2cc(OC)c(OC)c(OC)c2N1`, the GI50 with A549 is < 0.01 µM (active); in the assay on COLO 205, 18.7 µM (inactive); in the assay on EKVX, > 100 µM (inactive); in the assay with HCC 2998, 9.14 µM (inactive); in the assay with HCT-15, 8.49 µM; with KM12, 7.19 µM (inactive). The GI50 was 21.8 µM (inactive) in the assay on M14; 63.2 µM (inactive) in the assay with MOLT-4; 1.33 µM (inactive) in the assay on Malme-3M; 17.2 µM (inactive) with NCI-H460; 54.1 µM (inactive) in the assay with OVCAR-3; > 100 µM (inactive) in the assay on OVCAR-5. Also, the GI50 was 12.4 µM (inactive) in the assay on PC-3; 84.3 µM (inactive) with SK-MEL-28; 11 µM (inactive) in the assay with SK-MEL-5; 2.62 µM (inactive) with SK-OV-3; 17.3 µM (inactive) in the assay on SR; 30.1 µM (inactive) in the assay with UACC-62. Also, the GI50 in the assay on UO-31 is 46.2 µM (inactive).

Turning to `O=C1c2cccnc2S(=O)(=O)N1c1ccc(Oc2ccccc2)cc1`, the GI50 with A549 is 91.8 µM (inactive); in the assay on COLO 205, > 100 µM (inactive); in the assay with EKVX, > 100 µM (inactive); in the assay on HCC 2998, > 100 µM (inactive); in the assay with HCT-15 it was over 100 µM; in the assay on KM12, > 100 µM (inactive). In addition, the GI50 in the assay with M14 is > 100 µM (inactive); with MOLT-4, 92 µM (inactive); with Malme-3M, > 100 µM (inactive); in the assay with NCI-H460, > 100 µM (inactive); in the assay with OVCAR-3, > 100 µM (inactive); in the assay on OVCAR-5 it was > 100 µM (inactive). Also, the GI50 with PC-3 is 72.3 µM (inactive); with RPMI-8226, > 100 µM (inactive); with SK-MEL-28, > 100 µM (inactive); with SK-OV-3 it was 41.4 µM (inactive); with SR, 80 µM (inactive); with UACC-62 it was > 100 µM (inactive). Also, the GI50 in the assay with UO-31 was > 100 µM (inactive).

For the molecule `O=C(CN1CCCCC1)CC(O)(C(F)(F)F)C(F)(F)F`, the GI50 with A549 is > 100 µM (inactive); in the assay with COLO 205 it was > 100 µM (inactive); in the assay with EKVX, > 100 µM (inactive); with HCC 2998, > 100 µM (inactive); in the assay with HCT-15 it was over 100 µM; with KM12, > 100 µM (inactive). In addition, the GI50 in the assay with M14, with Malme-3M, in the assay on NCI-H460, in the assay with OVCAR-3, in the assay on OVCAR-5 and with PC-3 was > 100 µM (inactive) throughout. Moreover, the GI50 in the assay with RPMI-8226, in the assay on SK-MEL-28, in the assay with SK-MEL-5, in the assay with SK-OV-3, in the assay with SR and in the assay on UACC-62 was > 100 µM (inactive) throughout. Besides, in the assay on UO-31, the GI50 is > 100 µM (inactive).

With `Cc1csc2[n+]1C(=O)/C(=C\c1ccc([N+](=O)[O-])cc1)S2`, the GI50 was 27.4 µM (inactive) with A549; 19.7 µM (inactive) in the assay on COLO 205; 21.6 µM (inactive) in the assay on HCC 2998; 20.5 µM (inactive) in the assay on KM12; 34 µM (inactive) in the assay with M14; 29.5 µM (inactive) in the assay with MOLT-4. Besides, the GI50 in the assay with NCI-H460 was 22.9 µM (inactive); in the assay with OVCAR-3, 15.3 µM (inactive); with OVCAR-5, 47.2 µM (inactive); with PC-3, 25.4 µM (inactive); in the assay on RPMI-8226, 16.6 µM (inactive); in the assay on SK-MEL-28, 36.9 µM (inactive). The GI50 in the assay on SK-MEL-5 was 26.2 µM (inactive); with SK-OV-3 it was 31.5 µM (inactive); in the assay with SR, 32.5 µM (inactive); in the assay on UACC-62 it was 19.2 µM (inactive); in the assay with UO-31, 15.3 µM (inactive).

For the molecule `O=C(CN1CCCC1=O)CS(=O)(=O)c1ccccc1`, the GI50 in the assay on A549, in the assay on COLO 205, with EKVX, with HCC 2998, in the assay with KM12 and with M14 was > 100 µM (inactive) each time. The GI50 in the assay on MOLT-4, in the assay on Malme-3M, in the assay on NCI-H460, in the assay on OVCAR-3, in the assay on OVCAR-5 and in the assay with PC-3 was > 100 µM (inactive) each time. The GI50 in the assay with RPMI-8226, with SK-MEL-28, in the assay on SK-MEL-5, with SR, with UACC-62 and with UO-31 was > 100 µM (inactive) in each case.

On to `Cc1ccc(NNc2cc(=O)[nH]c(=O)[nH]2)cc1Cl`, for which the GI50 is 29 µM (inactive) in the assay on A549; 16.6 µM (inactive) with COLO 205; 15.7 µM (inactive) in the assay with HCC 2998; 10.6 µM in the assay with HCT-15; 27.3 µM (inactive) in the assay on KM12; 13.7 µM (inactive) with M14. The GI50 was 4.98 µM (inactive) in the assay with MOLT-4; 17.8 µM (inactive) with Malme-3M; 33.2 µM (inactive) in the assay with NCI-H460; 14.8 µM (inactive) in the assay on OVCAR-3; 73.8 µM (inactive) in the assay on OVCAR-5; 22.3 µM (inactive) in the assay with PC-3. In addition, the GI50 in the assay on RPMI-8226 is 10.9 µM (inactive); with SK-MEL-28, 17.2 µM (inactive); with SK-MEL-5, 73.5 µM (inactive); in the assay with SK-OV-3, 41.4 µM (inactive); with SR, 12.1 µM (inactive); in the assay with UACC-62 it was 18.3 µM (inactive). The GI50 in the assay with UO-31 is 3.25 µM (inactive).

For `C/C=C/[C@@H]1[C@H]2C(=O)[C@]3(Cl)[C@@H](/C=C/C)[C@@H]3C(=O)[C@@]12Cl`, the GI50 is > 100 µM (inactive) in the assay with A549; > 100 µM (inactive) with COLO 205; > 100 µM (inactive) in the assay on EKVX; > 100 µM (inactive) in the assay with HCC 2998; over 100 µM in the assay on HCT-15; > 100 µM (inactive) in the assay with KM12. Further, the GI50 was > 100 µM (inactive) in the assay on M14; 7.16 µM (inactive) in the assay on MOLT-4; > 100 µM (inactive) with Malme-3M; > 100 µM (inactive) with NCI-H460; > 100 µM (inactive) in the assay with OVCAR-3; > 100 µM (inactive) in the assay with OVCAR-5. Further, the GI50 in the assay on PC-3, with SK-MEL-28, in the assay with SK-MEL-5, in the assay with SK-OV-3, in the assay with SR and in the assay on UACC-62 was > 100 µM (inactive) in each case. For the same molecule, the GI50 with UO-31 is > 100 µM (inactive).

On to `CC1=NC(=Cc2ccc([N+](=O)[O-])cc2)C(=O)N1n1c(-c2ccccc2)nc2ccccc2c1=O`, for which the GI50 with A549 is 47.1 µM (inactive); in the assay on COLO 205, 46.6 µM (inactive); in the assay on EKVX it was 45.5 µM (inactive); with HCC 2998 it was 57.9 µM (inactive); in the assay on HCT-15, 43.1 µM; with KM12, 35.6 µM (inactive). In addition, the GI50 in the assay with M14 was 46.7 µM (inactive); with MOLT-4 it was 28.8 µM (inactive); in the assay on Malme-3M, 53.7 µM (inactive); in the assay on PC-3, 39.7 µM (inactive); in the assay with RPMI-8226, 22.3 µM (inactive); in the assay on SK-MEL-28, 57.9 µM (inactive). The GI50 in the assay on SK-MEL-5 is 31.9 µM (inactive); in the assay on SK-OV-3, 68.9 µM (inactive); in the assay with SR, 35.2 µM (inactive); with UACC-62, 43.3 µM (inactive); with UO-31 it was 31.6 µM (inactive).

`CC1CC/C(=C\c2ccc(Cl)cc2)c2nc(N)c(C#N)c(-c3ccc(Cl)cc3)c21` (stereo unspecified): the GI50 in the assay on A549 is 34.8 µM (inactive); with COLO 205, 41.4 µM (inactive); in the assay with EKVX, 80.7 µM (inactive); in the assay with HCC 2998, 26.1 µM (inactive); in the assay with HCT-15, 8.47 µM; with KM12, 40.2 µM (inactive). In addition, the GI50 was 57.8 µM (inactive) in the assay on M14; 14.1 µM (inactive) in the assay on MOLT-4; 13.4 µM (inactive) in the assay with Malme-3M; 47.1 µM (inactive) in the assay on OVCAR-3; > 100 µM (inactive) with OVCAR-5; 13.8 µM (inactive) in the assay on PC-3. Further, the GI50 is 19.7 µM (inactive) in the assay with RPMI-8226; 49.4 µM (inactive) with SK-MEL-28; 41.8 µM (inactive) in the assay on SK-MEL-5; > 100 µM (inactive) in the assay with SK-OV-3; < 0.01 µM (active) in the assay on SR; 20.5 µM (inactive) with UACC-62. For the same molecule, the GI50 in the assay with UO-31 was 27.7 µM (inactive).

Regarding `CC1CC(C#N)=C2NCCN2C1=O` (stereo unspecified), the GI50 is > 100 µM (inactive) with A549; 22.1 µM (inactive) with COLO 205; > 100 µM (inactive) in the assay with EKVX; > 100 µM (inactive) with HCC 2998; over 100 µM in the assay with HCT-15; > 100 µM (inactive) with KM12. Further, the GI50 in the assay on M14 was 19.4 µM (inactive); in the assay on MOLT-4 it was > 100 µM (inactive); in the assay with Malme-3M it was 94 µM (inactive); in the assay on NCI-H460, > 100 µM (inactive); with OVCAR-3, > 100 µM (inactive); with PC-3, > 100 µM (inactive). Also, the GI50 in the assay with RPMI-8226 was > 100 µM (inactive); in the assay with SK-MEL-28, > 100 µM (inactive); in the assay with SK-MEL-5 it was 15.2 µM (inactive); with SK-OV-3 it was > 100 µM (inactive); in the assay with SR it was > 100 µM (inactive); in the assay with UACC-62, > 10 µM (inactive). In the assay on UO-31, the GI50 was > 100 µM (inactive).
